Experimental data as given in patent US20040110802A1, “Antibacterial benzoic acid derivatives” (priority 2002, published 2004).
In brackets after ≈: the same amount, converted by molar mass.

Tested on: SAUR 9218
Test: MIC Test Method, standard agar dilution
Assay type: cell-based
Conditions: agar dilution, Mueller Hinton agar, incubated overnight at 35° C., lowest concentration that inhibits visible growth; for MIC: read-out: SAUR 9218 MIC
Outline: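 MIC (μg/ml) was read as the lowest drug level without visible growth of SAUR 9218 after overnight incubation at 35 °C. Inocula of about 10^4 to 10^5 cells per spot were applied to Mueller Hinton agar containing 2-fold serial compound dilutions.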

Row | Compound | MIC [µg/mL] | SAUR 9218 MIC [µg/mL]
1 | Cc1noc(C)c1C#Cc1cncc(C(=O)Nc2ccc(C#N)cc2C(=O)O)c1 | 16 (≈ 41.4 µM) | 
2 | N#Cc1ccc(NC(=O)c2noc3ccc(S(=O)(=O)Nc4ccccc4)cc23)c(C(=O)O)c1 | 0.015 (≈ 0.0324 µM) | 
3 | CCC(=O)COc1ccccc1-c1cc(C(=O)Nc2ccc(O)cc2C(=O)O)no1 | 1 (≈ 2.44 µM) | 
4 | CN(c1ccc(Cl)cc1)S(=O)(=O)c1ccc(C(=O)Nc2ccc(Br)cc2C(=O)O)o1 | 16 (≈ 31.1 µM) | 
5 | N#Cc1ccc(NC(=O)c2cc3cccc(NC(=O)CSc4ccccc4)c3[nH]2)c(C(=O)O)c1 | 0.5 (≈ 1.06 µM) | 
6 | Cc1sc(C(=O)Nc2ccc(C#N)cc2C(=O)O)cc1S(=O)(=O)N1CCOCC1 | 32 (≈ 73.5 µM) | 
7 | O=C(Nc1ccc(Br)cc1C(=O)O)c1cnc(SCc2ccccc2)cn1 | 0.125 (≈ 0.281 µM) | 
8 | O=C(Nc1ccc(Cl)cc1C(=O)O)c1cc(CCCC2CCCCC2)on1 | 4 (≈ 10.2 µM) | 
9 | O=C(Nc1ccc(Cl)cc1C(=O)O)c1cc(CCCc2ccccc2)on1 | 0.5 (≈ 1.3 µM) | 
10 | CCOC(=O)CCSc1ccc(C(=O)Nc2ccc(C#N)cc2C(=O)O)cn1 | 1 (≈ 2.5 µM) | 
11 | N#Cc1ccc(NC(=O)c2cc(CSc3ccncc3)on2)c(C(=O)O)c1 | 1 (≈ 2.63 µM) | 
12 | Cc1cc(C(=O)Nc2ccc(C#N)cc2C(=O)O)c(C)o1 | > 128 | 
13 | N#Cc1ccc(NC(=O)c2noc3cc(OS(=O)(=O)c4ccccc4)ccc23)c(C(=O)O)c1 | 0.5 (≈ 1.08 µM) | 
14 | O=C(Nc1ccc(Cl)cc1C(=O)O)c1cc(-c2ccc(C(F)(F)F)cc2)on1 | 0.5 (≈ 1.22 µM) | 
15 | CCCCCSc1cnc(C(=O)Nc2ccc(Br)cc2C(=O)O)cn1 | 0.25 (≈ 0.589 µM) | 
16 | CN(c1ccc(Cl)cc1)S(=O)(=O)c1cc(C(=O)Nc2ccc(Br)cc2C(=O)O)cs1 [drawing 825] |  | 2
17 | Cc1noc(C)c1-c1ccc2cc(C(=O)Nc3ccc(C#N)cc3C(=O)O)n(C)c2c1 | 1 (≈ 2.41 µM) | 
18 | N#Cc1ccc(NC(=O)c2cc(CO)on2)c(C(=O)O)c1 | 8 (≈ 27.9 µM) | 

Row | Compound | MIC [µg/mL] | SAUR 9218 MIC [µg/mL]
19 | N#Cc1ccc(NC(=O)c2cc3cccc(NC(=O)c4ccc(F)cc4F)c3[nH]2)c(C(=O)O)c1 | 1 (≈ 2.17 µM) | 
20 | N#Cc1ccc(NC(=O)c2ccc(SCC3CC3)nc2)c(C(=O)O)c1 | 0.5 (≈ 1.41 µM) | 
21 | O=C(Nc1ccc(Br)cc1C(=O)O)c1csc(S(=O)(=O)N2CCN(c3ccc(Cl)cc3)CC2)c1 | 32 (≈ 54.7 µM) | 
22 | Cc1c(C(=O)Nc2ccc(C#N)cc2C(=O)O)noc1-c1ccccc1 | 0.25 (≈ 0.72 µM) | 
23 | N#Cc1ccc(/C=C/c2noc3ccccc23)c(C(=O)O)c1 | 64 (≈ 220 µM) | 
24 | N#Cc1ccc(NC(=S)c2cc(-c3ccccc3F)on2)c(C(=O)O)c1 | 0.5 (≈ 1.36 µM) | 
25 | Cn1c(C(=O)Nc2ccc(C#N)cc2C(=O)O)c(Br)c2cccc(OCc3ccccc3)c21 | 1 (≈ 1.98 µM) | 
26 | N#Cc1ccc(NC(=O)c2ccc(S(=O)(=O)N3CCc4cc(Cl)ccc43)nc2)c(C(=O)O)c1 | 2 (≈ 4.14 µM) | 
27 | N#Cc1ccc(NC(=O)c2cc3cccc(NC(=O)C4CCC4)c3[nH]2)c(C(=O)O)c1 | 0.5 (≈ 1.24 µM) | 
28 | CON=C1CCn2c(C(=O)Nc3ccc(C#N)cc3C(=O)O)cc3cccc1c32 | 1 (≈ 2.57 µM) | 
29 | N#Cc1ccc(NC(=O)c2cc3cccc(NC(=O)Cc4ccc(F)cc4)c3[nH]2)c(C(=O)O)c1 | 0.25 (≈ 0.548 µM) | 
30 | N#Cc1ccc(NC(=O)c2noc3ccc([N+](=O)[O-])cc23)c(C(=O)O)c1 | 0.25 (≈ 0.71 µM) | 
31 | CC(C)n1c(C(=O)Nc2ccc(C#N)cc2C(=O)O)cc2ccccc21 | 2 (≈ 5.76 µM) | 
32 | N#Cc1ccc(NC(=O)c2cc(CNCc3ccncc3)on2)c(C(=O)O)c1.O=C(O)C(F)(F)F | 8 | 
33 | CCC(CC)Oc1ccccc1-c1cc(C(=O)Nc2ccc(C#N)cc2C(=O)O)no1 | 4 (≈ 9.54 µM) | 
34 | CCCCSc1cnc(C(=O)Nc2ccc(Br)cc2C(=O)O)cn1 | 1 (≈ 2.44 µM) | 
35 | N#Cc1ccc(NC(=O)c2cc3cccc(NC(=O)Cc4cccs4)c3[nH]2)c(C(=O)O)c1 | 0.5 (≈ 1.12 µM) | 

Further lines, results first:

Row | MIC [µg/mL] | SAUR 9218 MIC [µg/mL] | Compound
36 | 16 (≈ 40.9 µM) |  | CCC(C)Oc1ccc2cc(C(=O)Nc3ccc(C#N)cc3C(=O)O)n(C)c2c1 (stereo not drawn)
37 | > 128 |  | N#Cc1ccc(NC(=O)c2cc3cccc(NC(=O)C4CCCN4)c3[nH]2)c(C(=O)O)c1 (stereo not drawn)
38 | 0.5 (≈ 1.1 µM) |  | N#Cc1ccc(NC(=O)c2noc3ccc(S(=O)(=O)N4CCOCC4)cc23)c(C(=O)O)c1
39 | 4 (≈ 14.7 µM) |  | Cc1cc(C(=O)Nc2ccc(C#N)cc2C(=O)O)no1
40 | 64 (≈ 125 µM) |  | Cc1sc(C(=O)Nc2ccc(C#N)cc2C(=O)O)cc1S(=O)(=O)N1CCN(c2ncccn2)CC1
41 | 0.25 (≈ 0.562 µM) |  | N#Cc1ccc(NC(=O)c2cc3cccc(NC(=O)CCC4CCCC4)c3[nH]2)c(C(=O)O)c1
42 | 1 (≈ 2.43 µM) |  | O=C(Nc1ccc(Cl)cc1C(=O)O)c1cc(-c2ccccc2C(F)(F)F)on1
43 | 4 (≈ 9.97 µM) |  | CC(C)n1c(C(=O)Nc2ccc(Br)cc2C(=O)O)cc2ccccc21
44 | 0.125 (≈ 0.283 µM) |  | CC(C)N(c1ccc2onc(C(=O)Nc3ccc(C#N)cc3C(=O)O)c2c1)S(C)(=O)=O
45 | 0.125 (≈ 0.324 µM) |  | N#Cc1ccc(NC(=O)c2noc3ccc(Br)cc23)c(C(=O)O)c1
46 | 0.125 (≈ 0.307 µM) |  | COCC(C)Oc1cccc2cc(C(=O)Nc3ccc(C#N)cc3C(=O)O)n(C)c12 (stereo not drawn)
47 | 0.25 (≈ 0.553 µM) |  | Cc1ccccc1CC(=O)Nc1cccc2cc(C(=O)Nc3ccc(C#N)cc3C(=O)O)[nH]c12
48 | 0.5 (≈ 1.35 µM) |  | COC(=O)CSc1ccc(C(=O)Nc2ccc(C#N)cc2C(=O)O)cn1
49 | 0.25 (≈ 0.579 µM) |  | Cn1c(C(=O)Nc2ccc(C#N)cc2C(=O)O)cc2cccc(OCC3CCCCC3)c21
50 | 4 (≈ 8.31 µM) |  | Cc1sc(C(=O)Nc2ccc(C#N)cc2C(=O)O)cc1S(=O)(=O)N1CCc2ccccc2C1
51 | 2 (≈ 4.92 µM) |  | COCC(=O)Nc1ccc2cc(C(=O)Nc3ccc(C#N)cc3C(=O)O)n(C)c2c1
52 | > 128 |  | CCCCN(CCCC)CCCNS(=O)(=O)c1csc(C(=O)Nc2ccc(Br)cc2C(=O)O)c1C
53 | 0.5 (≈ 1.38 µM) |  | COc1cccc(-c2cnc(C(=O)Nc3ccc(C#N)cc3C(=O)O)o2)c1
54 | 0.5 (≈ 1.25 µM) |  | Cc1c(C(=O)Nc2ccc(Br)cc2C(=O)O)noc1-c1ccccc1

Row | MIC [µg/mL] | SAUR 9218 MIC [µg/mL] | Compound
55 | 0.125 (≈ 0.256 µM) |  | N#Cc1ccc(NC(=O)c2cc3cccc(NC(=O)Cc4cccc5ccccc45)c3[nH]2)c(C(=O)O)c1
56 | 0.06 (≈ 0.151 µM) |  | Cc1ccccc1-c1ccc2c(C(=O)Nc3ccc(C#N)cc3C(=O)O)noc2c1
57 | > 128 |  | N#Cc1ccc(NC(=O)c2cncc(-c3ccc(Cl)cc3)c2)c(C(=O)O)c1
58 | 0.125 (≈ 0.264 µM) |  | N#Cc1ccc(NC(=O)c2cc3cccc(NC(=O)C(Cl)c4ccccc4)c3[nH]2)c(C(=O)O)c1 (stereo not drawn)
59 | 0.25 (≈ 0.671 µM) |  | COc1ccc(-c2cc(C(=O)Nc3ccc(Cl)cc3C(=O)O)no2)cc1
60 | 4 (≈ 8.98 µM) |  | CC(C)(C)N1C(=O)c2ccc(C(=O)Nc3ccc(Br)cc3C(=O)O)cc2C1=O
61 | > 128 |  | COCC(OC)C(Cc1cnc(C(=O)Nc2ccc(Br)cc2C(=O)O)cn1)OC (stereo not drawn)
62 | 0.25 (≈ 0.668 µM) |  | N#Cc1ccc(NC(=O)c2cc3cccc4c3n2CC/C4=N\O)c(C(=O)O)c1
63 | 2 (≈ 3.77 µM) |  | CN(c1ccc(Cl)cc1)S(=O)(=O)c1ccc(C(=O)Nc2ccc(Br)cc2C(=O)O)s1
64 | 0.5 (≈ 1.04 µM) |  | CC(C)c1ccc(CC(=O)Nc2cccc3cc(C(=O)Nc4ccc(C#N)cc4C(=O)O)[nH]c23)cc1
65 | 1 (≈ 2.27 µM) |  | O=C(O)c1cc(Br)ccc1NC(=O)c1noc2ccc(Br)cc12
66 | 0.25 (≈ 0.493 µM) |  | N#Cc1ccc(NC(=O)c2cc3cccc(NC(=O)Cc4c(Cl)cccc4Cl)c3[nH]2)c(C(=O)O)c1
67 | 0.125 (≈ 0.326 µM) |  | CCCCCCSc1ccc(C(=O)Nc2ccc(C#N)cc2C(=O)O)cn1
68 | 1 (≈ 1.97 µM) |  | N#Cc1ccc(NC(=O)c2cc3cccc(NC(=O)Cc4ccccc4C(F)(F)F)c3[nH]2)c(C(=O)O)c1
69 | 8 (≈ 23.1 µM) |  | N#Cc1ccc(NC(=O)c2cncc(Br)c2)c(C(=O)O)c1
70 | 0.5 (≈ 1.16 µM) |  | Cn1c(C(=O)Nc2ccc(C#N)cc2C(=O)O)cc2ccc(NC(=O)c3ccno3)cc21
71 | 0.25 (≈ 0.584 µM) |  | Cn1c(C(=O)Nc2ccc(C#N)cc2C(=O)O)cc2cccc(OCC(O)CCl)c21 (stereo not drawn)
72 | 0.25 (≈ 0.596 µM) |  | N#Cc1ccc(NC(=O)c2cc(-c3ccccc3OC3CCOC3)on2)c(C(=O)O)c1 (stereo not drawn)
